According to publication PMC7771325 (Journal of medicinal chemistry, 2020):

Test: Aqueous solubility
Assay type: physicochemical
Settings: resisted cocrystallization attempts

**Q.** Which aqueous solubility does the source give for `Cn1cc(-c2[nH]c3cc(NC(=O)[C@H](N)C4CCCCC4)cc4c3c2C=NNC4=O)cn1` [PF-477736] here?
**A.** Its aqueous solubility is “low aqueous solubility”.
